Assay results published in ChEMBL document CHEMBL3507680, “University of Dundee, Gates Library screen for HepG2 cell viability”.

Test: Human HepG2 cell viability assay in 384 well format
Format: toxicity, cell-based
Set-up: dose 125 nL, time 70.5 hour; concentration not given beside the values
Conditions: HepG2 cells, read-out: Inhibition

Row | SMILES | cytotoxicity at 70.5 h [%]
1 | Cc1cc(CN2C[C@@H]3COC[C@]3(COCc3csc(C)n3)C2)no1 | 2.9
2 | O=C(NCc1ccco1)[C@@]12CCO[C@@H]1CCN(c1ncccn1)C2 | -2.22
3 | Cc1cc(CN(C)C(=O)c2ccc(OC(C)C)nc2)no1 | 20
4 | CN1CCN(C[C@@H]2OC[C@H]3CN(Cc4ccncc4)CC[C@H]32)CC1 | 0.409
5 | CCOC[C@]12COC[C@H]1CN(Cc1ccc3c(c1)OCO3)C2 | -6.35
6 | Cc1cnn(C2CN(CC(=O)NCC3(c4ccccc4)CCC3)C2)c1 | -2.82
7 | Cc1cccc(CNc2nnc(C(C)C)o2)c1 | 0.308
8 | O=C(c1ccccc1)N1CCCN(C(=O)c2ncncc2Cl)CC1 | 15.9
9 | Cc1n[nH]c(C)c1-c1nccnc1CC1CCNC1 (stereo not given) | -2.8
10 | CC(=O)NCC1CCN(C(=O)c2c(C)[nH]c3ccc(Cl)cc23)CC1 | -0.185
11 | COCCN1C(=O)CO[C@H]2CN(Cc3cccc(OC)c3F)C[C@@H]21 | -4.24
12 | COCCOc1ncccc1CNCc1c(C)nn(C)c1N(C)C | 2.93
13 | Cc1cc(CN(C)C(=O)c2ccc(Cl)c(N3CCCC3=O)c2)no1 | 28.1
14 | CC(CO)NC(=O)Nc1ccc(Cl)cc1OCC(F)(F)F (stereo not given) | -4.37
15 | NC(=O)C1CN(C(=O)Nc2ccccc2N2CCCCCC2)CCO1 (stereo not given) | -17.5
16 | CS(=O)(=O)N1C[C@@H](O)[C@H](N2CCN(c3ccccc3)CC2)C1 | 22.6
17 | CN1CCC(Oc2ccc(NC(=O)c3ccccc3Br)cc2)CC1 | -7.15
18 | O=C(c1ccnnc1)N1CCc2onc(CN3CCCC3)c2C1 | -3.95
19 | Cc1cccc(CN2C(=O)CO[C@@H]3CN(Cc4nccn4C)C[C@H]32)c1 | -3.81
20 | CC(NC(=O)NCC1(c2ccccc2)CCC1)c1nncn1C (stereo not given) | -16.7
21 | O=S(=O)(NCc1ccccc1Cn1cncn1)C1CCCC1 | 2.05
22 | N#Cc1cccc(C(=O)N2CCc3c(COCC4CC4)cncc3C2)c1 | -17.6
23 | CCOC(=O)c1ccc(S(=O)(=O)NCc2cccnc2N(C)C)cc1 | 34.2
24 | Cc1ccccc1OC1CCN(C(=O)CNC(=O)N(C)C)CC1 | -15.2
25 | CN(Cc1nnc2n1CCC2)C(=O)c1ccc(=O)n(C)n1 | 4.72
26 | COCC1CN(Cc2ccoc2)Cc2cn(CC3CCOCC3)nc21 (stereo not given) | -9.14
27 | Cc1cnn(CC2CN(c3nnc(C)c(C)c3C#N)CCO2)c1 (stereo not given) | -3.86

Row | SMILES | cytotoxicity at 70.5 h [%]
28 | CC(NC(=O)Nc1ccccc1CN1CCOCC1)c1nccs1 (stereo not given) | -2.17
29 | Cn1cc(CN2C[C@@H]3COC[C@]3(C(=O)NCc3ccccn3)C2)cn1 | -17.5
30 | Cc1n[nH]c(C)c1C1COCCN1C(=O)c1ccccc1 (stereo not given) | -8.5
31 | CC(C(=O)N1CCCN(c2ncccc2C#N)CC1)n1ccnc1 (stereo not given) | 21.6
32 | Cc1ccc(NC2CCN(C(=O)c3cnn(C(C)(C)C)c3)CC2)nn1 | -14.1
33 | CCc1ccc(C2COCCN2C(=O)Nc2ccc(C(N)=O)c(Cl)c2)o1 (stereo not given) | -2.09
34 | CN(C)c1ncc2c(n1)C1(CCN(Cc3ccccc3)C1)COC2 (stereo not given) | -5.25
35 | COc1nn(C)c2c1CCCN(C(=O)c1c[nH]cn1)C2 | -1.78
36 | O=C(c1cccnc1SCc1ccccc1)N1CC[C@@H](O)C1 | 29.6
37 | COC(C(=O)N1CCCN(Cc2cscn2)CC1)c1ccccc1 (stereo not given) | 12.8
38 | O=C(COC1CCCC1)NC(C(=O)Nc1cc[nH]n1)c1ccccc1 (stereo not given) | 3.78
39 | Cc1c(C(=O)NCC2CCN(C)C2)n(C)c2c(C)cccc12 (stereo not given) | -7.34
40 | O=C(NCc1nncn1C1CC1)C1(c2ccc(F)cc2)CCOCC1 | 16.9
41 | CN(Cc1cccnc1)C1CCCN(Cc2noc(C3CC3)n2)C1 (stereo not given) | 24.6
42 | O=C(Nc1ccc(N2CCOCC2)nc1)N1CCc2sccc2C1 | 46.1
43 | CC1CCCN(c2ccc(C(N)=O)cc2NC(=O)CC2=CCNCC2)C1 (stereo not given) | -17.5
44 | COc1cccc(-c2nc(C)c(C(=O)N[C@@H](CC(C)C)C(=O)O)s2)c1 | -18.1
45 | CCC1CN(CC(=O)NC2(C#N)CCCC2)CCN1CCOC (stereo not given) | -6.19
46 | O=C(c1cnc(COc2ccccc2)nc1O)N1CCOCC1 | -5.87
47 | CN(CCCNC(=O)C1CCCN(C(N)=O)C1)S(C)(=O)=O (stereo not given) | -9.57
48 | CN1CCC2(CCN(C(=O)c3cccnc3)C2)C1 (stereo not given) | 0.955
49 | Cc1nnc(CCNC(=O)C2CC(=O)N(C(C)(C)C)C2)s1 (stereo not given) | 26.2
50 | O=C(NCCc1c[nH]cn1)c1ccc(S(=O)(=O)NC2CCOC2)cc1 (stereo not given) | -0.712
51 | O=C(c1cc(COc2ccc3c(c2)OCO3)[nH]n1)N1CCOCC1 | 9.33
52 | O=C(c1cnco1)N1C[C@@H]2CC[C@H](Oc3ccccc3F)[C@@H]2C1 | 40.3
53 | CCN(CC)C(CNCc1ccc(OC)c(F)c1)c1ccco1 (stereo not given) | 54.9
54 | CN1CCOC(CNCc2csc(C3CCCC3)n2)C1 (stereo not given) | -1.7

Row | SMILES | cytotoxicity at 70.5 h [%]
55 | O=C(Cc1ccccn1)N1CCc2nc(-c3cnccn3)nc(O)c2C1 | -4.01
56 | CCC(CO)NC(=O)Nc1ccc(OCC(F)(F)F)c(C)c1 (stereo not given) | -1.78
57 | COc1cc(CNCCc2nc(C)cs2)cc2c1OCCO2 | -0.752
58 | O=c1oc(-c2ccccc2)nn1CN1CCC(N2CCCCC2)CC1 | 24.3
59 | CCNC(=O)N1CCC(Cc2cccc(C(N)=O)c2)C1 (stereo not given) | -5.09
60 | Cc1cccc(-n2cc(CNc3ncnc4c3CCNCC4)cn2)c1 | -10.3
61 | Cc1nc(C)c(C(=O)N2CCN(CCOc3ccccc3C)CC2)o1 | -8.43
62 | Cn1ncc(C(=O)O)c1C(=O)Nc1nc2ccccc2s1 | 14.7
63 | COc1ccc(Cl)cc1NC(=O)CN1CCc2nc(NC(C)=O)sc2C1 | 18.9
64 | CCN1CC2(CC1=O)CN(C(=O)NC(C)C)CCN(C(=O)C(C)C)C2 (stereo not given) | -3.19
65 | CC(C)NC(=O)CN(C)C(=O)c1c(Br)c2ccccc2n1C | -4.11
66 | Cc1ncccc1C(=O)Nc1cccc2c1C(=O)NC2 | -2.21
67 | CC(C)C(C(=O)N1CCC(Nc2cccnn2)CC1)n1cncn1 (stereo not given) | -11.9
68 | Cn1cnnc1-c1cncc(NCc2cccc3c2OCO3)c1 | -1.67
69 | Cc1cccc(NC(C)C(=O)Nc2nccs2)c1 (stereo not given) | -14.6
70 | Cc1cc(C)n(CC2CCCN2CC(=O)NC2CCOCC2)n1 (stereo not given) | -15.9
71 | Cc1noc(-c2ccnc(Oc3ccc(CN4CCCC4)cc3F)c2)n1 | 13.3
72 | Cc1nn(C)c(C)c1-c1cnc(C2CCCN(S(C)(=O)=O)C2)cn1 (stereo not given) | -9.63
73 | O=C(CN1CCCC1Cn1cccn1)NCCOc1cccc(F)c1 (stereo not given) | -0.693
74 | c1cc(-c2noc([C@@H]3CCCN3CC3CC3)n2)cc(N2CCCC2)n1 | -11.8
75 | COc1c(C)cnc(CN(C)C(=O)Nc2ccc3c(c2)CCO3)c1C | 19
76 | CN1CCOC(CNCC(=O)NCCC2=CCCCC2)C1 (stereo not given) | 4.71
77 | Cc1noc(C2CCN(C(=O)c3ccc(NC4CC4)nc3)CC2)n1 | -10.2
78 | COCC(=O)N[C@H](C)c1c(-c2ccc(OC)cc2)noc1C(=O)O | -16.4
79 | CC(Cn1cncn1)NCc1ccc2nonc2c1 (stereo not given) | -5.99
80 | CN1CCC(N(Cc2ccccc2)C(=O)c2ccn3cncc3c2)CC1 | 3.64
